Patent US20240092790A1, “DIHYDROFUROPYRIDINE DERIVATIVES AS RHO- KINASE INHIBITORS” (CHIESI FARMACEUTICI S.P.A., priority 2020, published 2024)

Columns and labels:
Type in all cases: biochemical
ROCK1 = ROCK1 (Homo sapiens, UniProt Q13464); assay: In vitro inhibitory activity assay ROCK1 (ADP-Glo); conditions: ATP 200 μM, Cheng-Prusoff; read-out: ROCK 1 (Ki, range of activity)
Protocol: (§1) In Vitro Inhibitory Activity Assay Description ROCK1 and ROCK2
(§2) The effectiveness of compounds of the present invention to inhibit Rho kinase activity can be determined in a 10 μl assay containing 40 mM Tris pH7.5, 20 mM MgCl2 0.1 mg/mL BSA, 50 μM DTT and 2.5 μM peptide substrate (Myelin Basic Protein) using an ADP-Glo kit (Promega). Compounds were dissolved in DMSO such that the final concentration of DMSO was 1% in the assay. All reactions/incubations are performed at 25° C. Compound (2 ul) and either Rho kinase 1 or 2 (4 μl) were mixed and incubated for 30 mins. Reactions were initiated by addition of ATP (4 μl) such that the final concentration of ATP in the assay was 200 μM. After a 1 hour incubation 10 μl of ADP-Glo Reagent was added and after a further 1 hour incubation 20 ul of Kinase Detection Buffer was added and the mixture incubated for a further 45 minutes. The luminescent signal was measured on a luminometer. […] Compounds were tested in dose-response format and the inhibition of kinase activity was calculated at each concentration of compound. To determine the IC50 (concentration of compound required to inhibit 50% of the enzyme activity) data were fit to a plot of % inhibition vs Log 10 compound concentration using a sigmoidal fit with a variable slope and fixing the maximum to 100% and the minimum to 0%. To determine the Ki values the Cheng-Prusoff equation was utilized (Ki=IC50/(1+[S]/Km).

ROCK2 = ROCK2 (Homo sapiens, UniProt O75116); assay: In vitro inhibitory activity assay ROCK2 (ADP-Glo); conditions: ATP 200 μM, Cheng-Prusoff; read-out: ROCK2 (Ki, range of activity)
Sequence of ROCK2 (O75116 whole entry): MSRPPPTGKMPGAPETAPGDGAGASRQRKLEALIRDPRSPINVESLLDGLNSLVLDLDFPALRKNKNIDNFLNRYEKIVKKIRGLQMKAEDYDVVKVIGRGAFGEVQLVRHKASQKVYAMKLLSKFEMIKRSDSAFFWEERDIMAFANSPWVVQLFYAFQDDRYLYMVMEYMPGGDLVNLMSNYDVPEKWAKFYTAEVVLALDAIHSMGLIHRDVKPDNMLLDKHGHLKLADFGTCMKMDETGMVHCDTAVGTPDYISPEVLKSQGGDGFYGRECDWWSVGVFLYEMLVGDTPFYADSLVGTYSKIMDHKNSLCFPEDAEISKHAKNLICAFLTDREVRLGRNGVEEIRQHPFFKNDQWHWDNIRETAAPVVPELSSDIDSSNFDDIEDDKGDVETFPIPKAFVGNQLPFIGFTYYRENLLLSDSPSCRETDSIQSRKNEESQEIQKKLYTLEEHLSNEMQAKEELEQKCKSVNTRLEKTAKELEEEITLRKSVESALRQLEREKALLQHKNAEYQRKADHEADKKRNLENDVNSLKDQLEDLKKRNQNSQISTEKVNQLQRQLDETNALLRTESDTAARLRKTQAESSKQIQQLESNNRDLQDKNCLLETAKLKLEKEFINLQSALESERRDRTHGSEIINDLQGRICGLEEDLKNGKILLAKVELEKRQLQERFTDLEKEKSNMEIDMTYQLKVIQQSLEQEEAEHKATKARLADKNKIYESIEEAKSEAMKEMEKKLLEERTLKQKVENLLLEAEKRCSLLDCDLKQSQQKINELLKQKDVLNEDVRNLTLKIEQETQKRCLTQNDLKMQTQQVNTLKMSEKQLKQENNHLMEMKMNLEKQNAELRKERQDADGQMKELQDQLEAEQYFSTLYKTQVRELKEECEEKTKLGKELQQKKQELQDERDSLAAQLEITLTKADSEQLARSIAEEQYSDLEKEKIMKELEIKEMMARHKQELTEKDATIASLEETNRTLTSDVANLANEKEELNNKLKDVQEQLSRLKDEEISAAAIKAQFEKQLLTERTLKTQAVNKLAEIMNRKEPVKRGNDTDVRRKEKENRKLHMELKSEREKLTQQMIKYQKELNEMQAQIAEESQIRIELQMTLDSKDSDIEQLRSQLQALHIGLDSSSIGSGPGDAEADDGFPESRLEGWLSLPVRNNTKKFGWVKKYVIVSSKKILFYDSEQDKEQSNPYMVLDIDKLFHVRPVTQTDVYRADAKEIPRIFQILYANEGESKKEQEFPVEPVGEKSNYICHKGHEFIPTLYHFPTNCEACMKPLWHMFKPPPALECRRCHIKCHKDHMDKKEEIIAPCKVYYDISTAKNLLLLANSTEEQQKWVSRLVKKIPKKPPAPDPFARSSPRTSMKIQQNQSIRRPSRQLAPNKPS
Protocol: as §1, §2

PKA = PKA (Homo sapiens, UniProt P17612); assay: In vitro inhibitory activity assay for PKA (ADP-Glo), reported as selectivity ratio vs ROCK2; conditions: Ki value for PKA divided by Ki value of ROCK2
Protocol: In Vitro Inhibitory Activity Assay Description for PKA
The effectiveness of compounds of the present invention to inhibit PKA activity can be determined in a 10 μl assay containing 40 mM Tris pH7.5, 20 mM MgCl2 0.1 mg/ml BSA, 50 μM DTT and 260 μM peptide substrate (kemptide) using an ADP-Glo kit (Promega). Compounds were dissolved in DMSO such that the final concentration of DMSO was 1% in the assay. All reactions/incubations are performed at 25° C. Compound and PKA enzyme (6 μl) were mixed and incubated for 30 mins. Reactions were initiated by addition of ATP (4 μl) such that the final concentration of ATP in the assay was 10 μM. After a 30 minute incubation 10p of ADP-Glo Reagent was added and after a further 1 hour incubation 20 μl of Kinase Detection Buffer was added and the mixture incubated for a further 45 minutes. The luminescent signal was measured on a luminometer. […] Compounds were tested in dose-response format and the inhibition of kinase activity was calculated at each concentration of compound. To determine the IC50 (concentration of compound required to inhibit 50% of the enzyme activity) data were fit to a plot of % inhibition vs Log10 compound concentration using a sigmoidal fit with a variable slope and fixing the maximum to 100% and the minimum to 0%. To determine the Ki values the Cheng-Prusoff equation was utilized (Ki=IC50/(1+[S]/Km).
In vitro inhibitory activities for PKA were reported as selectivity ratio vs. ROCK-2.

Sequence of ROCK1 (Q13464 whole entry): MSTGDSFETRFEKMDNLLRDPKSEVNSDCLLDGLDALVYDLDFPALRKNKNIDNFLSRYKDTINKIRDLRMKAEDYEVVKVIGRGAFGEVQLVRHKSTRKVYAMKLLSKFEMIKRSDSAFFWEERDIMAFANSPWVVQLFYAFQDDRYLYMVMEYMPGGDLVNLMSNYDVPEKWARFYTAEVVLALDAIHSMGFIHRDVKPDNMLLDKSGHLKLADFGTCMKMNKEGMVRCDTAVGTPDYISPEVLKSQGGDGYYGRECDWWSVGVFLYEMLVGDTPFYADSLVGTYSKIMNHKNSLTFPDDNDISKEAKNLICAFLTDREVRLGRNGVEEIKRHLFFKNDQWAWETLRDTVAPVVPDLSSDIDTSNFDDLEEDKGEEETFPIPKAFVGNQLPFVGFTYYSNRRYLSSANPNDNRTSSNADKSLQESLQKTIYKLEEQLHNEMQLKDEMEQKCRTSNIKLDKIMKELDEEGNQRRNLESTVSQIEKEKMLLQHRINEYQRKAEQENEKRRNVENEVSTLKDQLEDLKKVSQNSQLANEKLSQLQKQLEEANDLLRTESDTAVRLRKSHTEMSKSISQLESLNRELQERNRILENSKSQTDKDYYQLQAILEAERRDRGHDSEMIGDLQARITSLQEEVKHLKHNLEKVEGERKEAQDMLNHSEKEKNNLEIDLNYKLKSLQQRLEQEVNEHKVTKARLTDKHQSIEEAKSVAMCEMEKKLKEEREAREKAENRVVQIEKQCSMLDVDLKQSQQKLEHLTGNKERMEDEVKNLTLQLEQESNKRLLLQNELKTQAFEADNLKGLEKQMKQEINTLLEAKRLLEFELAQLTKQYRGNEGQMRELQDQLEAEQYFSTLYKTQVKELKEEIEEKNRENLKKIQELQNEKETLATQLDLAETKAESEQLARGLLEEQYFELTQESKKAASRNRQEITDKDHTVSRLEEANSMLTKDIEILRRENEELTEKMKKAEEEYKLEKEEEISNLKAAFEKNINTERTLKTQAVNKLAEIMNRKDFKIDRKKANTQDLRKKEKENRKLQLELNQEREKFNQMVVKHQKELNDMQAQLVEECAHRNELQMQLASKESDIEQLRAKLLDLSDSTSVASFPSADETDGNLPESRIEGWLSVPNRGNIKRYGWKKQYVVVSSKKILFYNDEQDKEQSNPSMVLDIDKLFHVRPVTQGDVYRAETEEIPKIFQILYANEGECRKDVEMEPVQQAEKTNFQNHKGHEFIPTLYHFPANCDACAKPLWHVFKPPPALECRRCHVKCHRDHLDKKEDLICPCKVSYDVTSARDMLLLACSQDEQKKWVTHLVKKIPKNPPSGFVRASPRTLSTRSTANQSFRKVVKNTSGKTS

Ki (ROCK1) [nM]	Ki (ROCK2) [nM]	Ratio (PKA/ROCK2) (PKA)	SMILES
≤ 3	≤ 3	*** (ratio≥10)	CC(C)(C)N1CC(CNC(=O)c2cccc(CNc3ncc(-c4ccnc(N)n4)c4c3CCO4)c2)CC1=O (single isomer, unassigned) [Example 33, 3-(((7-(2-Aminopyrimidin-4-yl)-2,3-dihydrofuro[3,2-c]pyridin-4-yl)amino)methyl)-N-((1-(tert-butyl)-5-oxopyrrolidin-3-yl)methyl)benzamide]
≤ 3	≤ 3	*** (ratio≥10)	CN1CCOC(CNC(=O)c2cccc(CNc3ncc(-c4ccnc(N)n4)c4c3CCO4)c2)C1 (single isomer, unassigned) [Example 34, 3-(((7-(2-Aminopyrimidin-4-yl)-2,3-dihydrofuro[3,2-c]pyridin-4-yl)amino)methyl)-N-((4-methylmorpholin-2-yl)methyl)benzamide]
≤ 3	≤ 3	*** (ratio≥10)	Nc1nccc(-c2cnc(NCc3cccc(C(=O)NC4CC4F)c3)c3c2OCC3)n1 (single isomer, unassigned) [Example 45, Trans 3-(((7-(2-Aminopyrimidin-4-yl)-2,3-dihydrofuro[3,2-c]pyridin-4-yl)amino)methyl)-N-(2-fluorocyclopropyl)benzamide]
≤ 3	≤ 3	*** (ratio≥10)	Nc1nccc(-c2cnc(NCc3cccc(C(=O)NC4CC4F)c3)c3c2OCC3)n1 (single isomer, unassigned) [Example 46, Trans 3-(((7-(2-Aminopyrimidin-4-yl)-2,3-dihydrofuro[3,2-c]pyridin-4-yl)amino)methyl)-N-(2-fluorocyclopropyl)benzamide]

Second part, the compound before the results:

SMILES	Ki (ROCK1) [nM]	Ki (ROCK2) [nM]	Ratio (PKA/ROCK2) (PKA)
CC(C)(C)N1CC(CNC(=O)c2cccc(CNc3ncc(-c4ccnc(N)n4)c4c3CCO4)c2)CC1=O (single isomer, unassigned) [Example 32, 3-(((7-(2-Aminopyrimidin-4-yl)-2,3-dihydrofuro[3,2-c]pyridin-4-yl)amino)methyl)-N-((1-(tert-butyl)-5-oxopyrrolidin-3-yl)methyl)benzamide]	≤ 3	≤ 3	*** (ratio≥10)
CN1CCOC(CNC(=O)c2cccc(CNc3ncc(-c4ccnc(N)n4)c4c3CCO4)c2)C1 (single isomer, unassigned) [Example 35, 3-(((7-(2-Aminopyrimidin-4-yl)-2,3-dihydrofuro[3,2-c]pyridin-4-yl)amino)methyl)-N-((4-methylmorpholin-2-yl)methyl)benzamide]	≤ 3	≤ 3	*** (ratio≥10)
Nc1nccc(-c2cnc(NCc3cccc(C(=O)NC4CCC4)c3)c3c2OCC3)n1 [Example 1, 3-(((7-(2-Aminopyrimidin-4-yl)-2,3-dihydrofuro[3,2-c]pyridin-4-yl)amino)methyl)-N-cyclobutylbenzamide]	≤ 3	≤ 3	** (5≤ratio<10)
Nc1nccc(-c2cnc(NCc3cccc(C(=O)NCC4CCOCC4)c3)c3c2OCC3)n1 [Example 2, 3-(((7-(2-Aminopyrimidin-4-yl)-2,3-dihydrofuro[3,2-c]pyridin-4-yl)amino)methyl)-N-((tetrahydro-2H-pyran-4-yl)methyl)benzamide]	≤ 3	≤ 3	*** (ratio≥10)
CC1(C)CC(NC(=O)c2cccc(CNc3ncc(-c4ccnc(N)n4)c4c3CCO4)c2)CO1 (stereo not drawn) [Example 3, 3-(((7-(2-Aminopyrimidin-4-yl)-2,3-dihydrofuro[3,2-c]pyridin-4-yl)amino)methyl)-N-(5,5-dimethyltetrahydrofuran-3-yl)benzamide]	≤ 3	≤ 3	*** (ratio≥10)
Nc1nccc(-c2cnc(NCc3cccc(C(=O)NC4CC4)c3)c3c2OCC3)n1 [Example 4, 3-(((7-(2-Aminopyrimidin-4-yl)-2,3-dihydrofuro[3,2-c]pyridin-4-yl)amino)methyl)-N-cyclopropylbenzamide]	≤ 3	≤ 3	*** (ratio≥10)
